According to patent publication US20100130579A1, “CANCER THERAPY” (Georgetown University, priority 2006, published 2010):

How the values were obtained:
LNCaP cells = assay: Flow cytometric cell cycle analysis, LNCaP; assay type: cell-based, human; details: mahanine 3 days
Experimental: FIG. 4A-4B. Mahanine arrests prostate cancer cells at G0/G1 phase of cell cycle. To determine if down-regulation of cyclin D1 by mahanine treatments affect cell cycle, PC3 4(A) and LNCaP 4(B) cells were treated with 0, 1 and 2 μg/ml mahanine for 3 days. After treatment, flow cytometric analyses were performed. The percentage of cells in the G0/G1, S and G2/M-phase of the cell cycle were shown on right. FACS analysis of PC3 and LNCaP prostate cancer cells with vehicle or 2 μg/ml mahanine are shown in the left panel. Values are the mean from two independent experiments in duplicates.
Since cyclin D1 regulates cell cycle progression at the G0/G1 phase, Aplicants examined the cell cycle profile of PC3 and LNCaP cells in the presence of various concentrations of mahanine.

RASSF1A = assay: RT-PCR of RASSF1A expression in cancer cells; assay type: cell-based, human
Experimental: FIGS. 1A-1D. Mahanine induces RASSF1A in prostate and other cancer cells. FIG. 1A: Microarray analyses of PC3 cells treated with ([…] (+) or vehicle (−) for 2 days, RNA was extracted and microarray analysis was performed. FIG. 1B: RT-PCR data showing the expression of RASSF1A and GAPDH in untreated normal prostate epithelial cells (PrEC) and human prostate cancer cells (PC3). FIG. 1C: PC3 (left panel) and LNCaP (right panel) cells were treated with 0, 1, 2 and 3 μg/ml mahanine for 3 days. RNA was extracted, and RT-PCR assays were performed to detect RASSF1A and GAPDH expression. Representative photograph from an experiment that was repeated thrice. Quantitative estimations of relative levels of RASSF1A mRNAs (lower panels) were determined by densitometric measurements of RT-PCR gels from three independent experiments after normalization with GAPDH. […]
(§1) Genes of interest were amplified using 500 ng of total RNA reverse-transcribed to cDNA using a Superscript II kit (Invitrogen) with random hexamers. […] After amplification, PCR products were separated on 1.5% agarose gels and visualized by ethidium bromide fluorescence using the Fuji LAS-1000 Imager. […] Band intensities were quantified by using ImageJ software (NIH, Bethesda, Md.).

cyclin A1 = assay: RT-PCR of cyclin A1 mRNA in prostate cancer cells; assay type: cell-based, human; details: PC3 or LNCaP cells, mahanine treatment
cyclin E1 = assay: RT-PCR of cyclin E1 mRNA in prostate cancer cells; assay type: cell-based, human; details: PC3 or LNCaP cells, mahanine treatment
Experimental: FIG. 5. RASSF1A down-regulates cyclin D1 expression in prostate cancer cells but not other cyclins. […] RNA was extracted, and RT-PCR assays were performed to detect RASSF1A, cyclin A1, B1, D1, E1 and GAPDH mRNAs. Representative photograph from an experiment that was repeated thrice. Quantitative estimations of relative levels of cyclin D1 and RASSF1A mRNAs were determined by densitometric measurements of RT-PCR gels from three independent experiments after normalization with GAPDH.
as §1, with “hexamers. Human-specific primers were designed using the Primer Quest program and purchased from Integrated DNA Technologies, Inc (Coralville, Iowa).” for “hexamers.”

Akt = details: prostate cancer cells; cited from earlier work
LNCaP and PC3 cells = details: androgen-responsive LNCaP and androgen-independent PC3 cells; cited from earlier work
cyclin D1 = assay: RT-PCR of cyclin D1 mRNA in cancer cells; assay type: cell-based, human

CC(C)=CCC[C@@]1(C)C=Cc2c(c(C)cc3c2[nH]c2cc(O)ccc23)O1 [mahanine]
cells in S-phase (LNCaP cells; decreased from 25.6% (control)): 6.1% | cells in G0/G1 phase (LNCaP cells; increased from 63.7% (control)): 90.7% | induction of RASSF1A expression (RT-PCR) (RASSF1A; A431, A549, ASPC-1, HT-29, MCF7 and SKOV-3 cells, 2 and 3 μg/ml, 2 days): induced RASSF1A expression | induction of RASSF1A gene expression (RT-PCR) (RASSF1A; PC3 cells, 1, 2 and 3 μg/ml, 3 days, dose-dependent): 20-80 folds | cyclin A1 expression (RT-PCR) (cyclin A1): did not alter the expression | cyclin E1 expression (RT-PCR) (cyclin E1): did not alter the expression | Akt activation state (Akt): deactivated Akt | growth of prostate cancer cells (LNCaP and PC3 cells): inhibits growth in a dose-dependent manner | cyclin D1 expression (RT-PCR) (cyclin D1; PC3 cells, 1, 2 and 3 μg/ml, 3 days): down-regulated the expression of cyclin D1 in PC3 cells in a dose-dependent manner | cyclin D1 expression (RT-PCR) (cyclin D1; epidermoid (A431), lung (A549), pancreatic (ASPC-1), colon (HT-29), breast (MCF7) and ovarian (SKOV-3) cancer cells, 2 and 3 μg/ml, 2 days): down regulation of cyclin D1
